# Data published in ChEMBL document CHEMBL5634070, “Assessment of the structure-activity relationship and antileukemic activity of diacylpyramide compounds as human ClpP agonists” (Eur J Med Chem, 2023).
# The source made the active and inactive calls. No cut-off for these calls is given here.
# Key:
# [1] = Toxicity in BALB/c mouse xenografted with human NB4 cells assessed as change in body weight at 60 mg/kg,ip administrated for 30 days; format: organism-based, NB-4; settings: in vivo, 720 h, time 30 day
# [2] = target: T1, ATP-dependent Clp protease proteolytic subunit, mitochondrial (Homo sapiens, UniProt Q16740); assay: Binding affinity to CLpP in human MOLM-13 cells assessed as thermal stabilization at 10 uM at 52.9 to 78 degreeC by cellular thermal shift assay; format: cell-based; settings: filed as agonist
# MV4-11 [3] = assay: Antileukemic activity against human MV4-11 cells xenografted in BALB/c mouse assessed as reduction in tumor weight at 60 mg/kg,ip administrated for 30 days; format: functional, organism-based; settings: time 30.0 day
# NB-4 [4] = assay: Antileukemic activity against human NB4 cells xenografted in BALB/c mouse assessed as reduction in tumor weight at 30 mg/kg,ip administrated for 30 days; format: functional, organism-based; settings: time 30.0 day
# MV4-11 [5] = assay: Antileukemic activity against human MV4-11 cells xenografted in BALB/c mouse assessed as reduction in tumor weight at 30 mg/kg,ip administrated for 30 days; format: functional, organism-based; settings: time 30.0 day
# Cell membrane = assay: Induction of mitochondrial membrane potential loss in human MOLM-13 cells at 10 uM incubated upto 48 hrs by TMRE staining based assay
# [6] = Toxicity in BALB/c mouse xenografted with human MV4-11 cells assessed as change in body weight at 60 mg/kg,ip administrated for 30 days; format: organism-based; settings: in vivo, 720 h, time 30 day
# [7] = target: T1, ATP-dependent Clp protease proteolytic subunit, mitochondrial; assay: Binding affinity to human CLpP assessed as change in melting temperature by DSF assay; settings: filed as agonist
# [8] = target: T1, ATP-dependent Clp protease proteolytic subunit, mitochondrial; assay: Binding affinity to CLpP in human HEL cells assessed as thermal stabilization at 10 uM at 52.9 to 78 degreeC by cellular thermal shift assay; format: cell-based; settings: filed as agonist
# NB-4 [9] = assay: Antileukemic activity against human NB4 cells assessed as reduction in mitochondrial DNA content at 10 uM incubated for 24 hrs; format: functional, cell-based
# MOLM-13 [10] = assay: Antileukemic activity against human MOLM-13 cells assessed as reduction in cellular ATP content at 10 uM incubated upto 48 hrs; format: functional, cell-based
# MV4-11 [11] = assay: Antileukemic activity against human MV4-11 cells xenografted in BALB/c mouse assessed as reduction in tumor volume at 30 mg/kg,ip administrated for 30 days; format: functional, organism-based; settings: time 30.0 day
# NB-4 [12] = assay: Antileukemic activity against human NB4 cells assessed as downregulation of UQCRC2 protein expression incubated for 24 hrs by Western blotting analysis; format: functional, cell-based
# NB-4 [13] = assay: Antileukemic activity against human NB4 cells xenografted in BALB/c mouse assessed as reduction in tumor volume at 60 mg/kg,ip administrated for 30 days; format: functional, organism-based; settings: time 30.0 day
# [14] = Toxicity in BALB/c mouse xenografted with human MV4-11 cells assessed as change in body weight at 30 mg/kg,ip administrated for 30 days; format: organism-based; settings: in vivo, 720 h, time 30 day
# [15] = target: T1, ATP-dependent Clp protease proteolytic subunit, mitochondrial; assay: Agonist activity at human CLpP by measuring alpha-casein hydrolysis using alpha-casein as substrate preincubated for 10 mins followed by substrate addition and measured after 120 mins by Coomassie brilliant blue staining based SDS-PAGE assay
# NB-4 [16] = assay: Inhibition of colony formation in human NB4 cells incubated for 14 days; format: functional, cell-based; settings: time 14.0 day
# MOLM-13 [17] = assay: Inhibition of mitochondrial respiration in human MOLM-13 cells assessed as reduction in oxygen consumption rate at 10 uM incubated for 24 hrs; format: functional, cell-based
# HEL [18] = assay: Antiproliferative activity against human HEL cells assessed as inhibition of cell growth incubated for 72 hrs by CCK-8 assay; format: functional, cell-based
# NB-4 [19] = assay: Antileukemic activity against human NB4 cells xenografted in BALB/c mouse assessed as reduction in tumor volume at 30 mg/kg,ip administrated for 30 days; format: functional, organism-based; settings: time 30.0 day
# MV4-11 [20] = assay: Induction of apoptosis in human MV4-11 cells incubated for 24 to 72 hrs; format: functional, cell-based; settings: time 24-72 hrs
# MV4-11 [21] = assay: Antileukemic activity against human MV4-11 cells xenografted in BALB/c mouse assessed as reduction in tumor volume at 60 mg/kg,ip administrated for 30 days; format: functional, organism-based; settings: time 30.0 day
# [22] = target: T1, ATP-dependent Clp protease proteolytic subunit, mitochondrial; assay: Agonist activity at human CLpP by measuring alpha-casein hydrolysis using alpha-casein as substrate by FITC staining based assay
# MV4-11 [23] = assay: Inhibition of mitochondrial respiration in human MV4-11 cells assessed as reduction in oxygen consumption rate at 5 uM incubated for 24 hrs; format: functional, cell-based
# [24] = Toxicity in BALB/c mouse xenografted with human NB4 cells assessed as change in body weight at 30 mg/kg,ip administrated for 30 days; format: organism-based, NB-4; settings: in vivo, 720 h, time 30 day
# MOLM-13 [25] = assay: Antiproliferative activity against human MOLM-13 cells assessed as inhibition of cell growth at 20 uM by CCK-8 assay relative to control; format: functional
# NB-4 [26] = assay: Inhibition of mitochondrial respiration in human NB4 cells assessed as reduction in oxygen consumption rate at 10 uM incubated for 24 hrs; format: functional, cell-based
# NB-4 [27] = assay: Antileukemic activity against human NB4 cells assessed as downregulation of NDUFB8 protein expression incubated for 24 hrs by Western blotting analysis; format: functional, cell-based
# NB-4 [28] = assay: Antileukemic activity against human NB4 cells assessed as downregulation of NDUFA12 protein expression incubated for 24 hrs by Western blotting analysis; format: functional, cell-based
# NB-4 [29] = assay: Inhibition of mitochondrial respiration in human NB4 cells assessed as reduction in oxygen consumption rate at 5 uM incubated for 24 hrs; format: functional, cell-based
# NB-4 [30] = assay: Antileukemic activity against human NB4 cells assessed as downregulation of NDUFV2 protein expression incubated for 24 hrs by Western blotting analysis; format: functional, cell-based
# MOLM-13 [31] = assay: Induction of apoptosis in human MOLM-13 cells incubated for 24 to 72 hrs; format: functional, cell-based; settings: time 24-72 hrs
# MOLM-13 [32] = assay: Antileukemic activity against human MOLM-13 cells assessed as reduction in mitochondrial DNA content at 10 uM incubated for 24 hrs; format: functional, cell-based
# MV4-11 [33] = assay: Antileukemic activity against human MV4-11 cells assessed as reduction in mitochondrial DNA content at 10 uM incubated for 24 hrs; format: functional, cell-based
# HEL [34] = assay: Antileukemic activity against human HEL cells assessed as reduction in mitochondrial DNA content at 10 uM incubated for 24 hrs; format: functional, cell-based
# NB-4 [35] = assay: Antileukemic activity against human NB4 cells assessed as downregulation of SDHB protein expression incubated for 24 hrs by Western blotting analysis; format: functional, cell-based
# MOLM-13 [36] = assay: Antiproliferative activity against human MOLM-13 cells assessed as inhibition of cell growth incubated for 72 hrs by CCK-8 assay; format: functional, cell-based; settings: MOLM-13, 72 h
# MV4-11 [37] = assay: Antiproliferative activity against human MV4-11 cells cultured as 3D cells assessed as inhibition of cell growth; format: functional, cell-based
# MV4-11 [38] = assay: Antiproliferative activity against human MV4-11 cells assessed as inhibition of cell growth incubated for 72 hrs by CCK-8 assay; format: functional, cell-based; settings: MV4-11, 72 h
# MV4-11 [39] = assay: Inhibition of mitochondrial respiration in human MV4-11 cells assessed as reduction in oxygen consumption rate at 10 uM incubated for 24 hrs; format: functional, cell-based
# NB-4 [40] = assay: Antileukemic activity against human NB4 cells xenografted in BALB/c mouse assessed as reduction in tumor weight at 60 mg/kg,ip administrated for 30 days; format: functional, organism-based; settings: time 30.0 day
# NB-4 [41] = assay: Antiproliferative activity against human NB4 cells assessed as inhibition of cell growth incubated for 72 hrs by CCK-8 assay; format: functional, cell-based; settings: NB-4, 72 h
# NB-4 [42] = assay: Antileukemic activity against human NB4 cells assessed as downregulation of SDHA protein expression incubated for 24 hrs by Western blotting analysis; format: functional, cell-based
# MOLM-13 [43] = assay: Inhibition of mitochondrial respiration in human MOLM-13 cells assessed as reduction in oxygen consumption rate at 5 uM incubated for 24 hrs; format: functional, cell-based
# NB-4 [44] = assay: Induction of apoptosis in human NB4 cells incubated for 24 to 72 hrs; format: functional, cell-based; settings: time 24-72 hrs
# [45] = target: T1, ATP-dependent Clp protease proteolytic subunit, mitochondrial; assay: Binding affinity to CLpP in human MV4-11 cells assessed as thermal stabilization at 10 uM at 52.9 to 78 degreeC by cellular thermal shift assay; format: cell-based; settings: filed as agonist
# T1 sequence (Q16740 whole entry): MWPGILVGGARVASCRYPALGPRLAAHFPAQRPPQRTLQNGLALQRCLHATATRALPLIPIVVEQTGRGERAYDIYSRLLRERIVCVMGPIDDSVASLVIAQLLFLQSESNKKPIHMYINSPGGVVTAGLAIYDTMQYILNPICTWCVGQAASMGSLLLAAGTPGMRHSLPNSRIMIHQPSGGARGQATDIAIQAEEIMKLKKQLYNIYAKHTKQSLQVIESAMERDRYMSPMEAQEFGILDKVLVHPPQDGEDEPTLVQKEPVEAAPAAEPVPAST
smiles,measurement,setting,value
CC[C@H](C)[C@H]1C(=O)N(Cc2ccc(OC)c3ccccc23)C[C@@H]2N(C(=O)NCc3ccc(Br)cc3)CCC(=O)N12,Activity,[1],Non-Toxic
same,Activity,[2],Active
same,Activity,MV4-11 [3],Active
same,Activity,NB-4 [4],Active
same,Activity,MV4-11 [5],Active
same,Activity,Cell membrane,Active
same,Activity,[6],Non-Toxic
same,ΔTm,[7],21.8 °C
same,Activity,[8],Active
same,Activity,NB-4 [9],Active
same,Activity,MOLM-13 [10],Active
same,Activity,MV4-11 [11],Active
same,Activity,NB-4 [12],Dose-Dependent Effect
same,Activity,NB-4 [13],Active
same,Activity,[14],Non-Toxic
same,EC50,[15],2.2 µM
same,inhibition,NB-4 [16],Dose-Dependent Effect
same,inhibition,MOLM-13 [17],Active
same,IC50,HEL [18],3.3 µM
same,Activity,NB-4 [19],Active
same,Activity,MV4-11 [20],Active
same,Activity,MV4-11 [21],Active
same,EC50,[22],0.54 µM
same,inhibition,MV4-11 [23],Active
same,Activity,[24],Non-Toxic
same,inhibition at 20 µM,MOLM-13 [25],99.6%
same,inhibition,NB-4 [26],Active
same,Activity,NB-4 [27],Dose-Dependent Effect
same,Activity,NB-4 [28],Dose-Dependent Effect
same,inhibition,NB-4 [29],Active
same,Activity,NB-4 [30],Dose-Dependent Effect
same,Activity,MOLM-13 [31],Active
same,Activity,MOLM-13 [32],Active
same,Activity,MV4-11 [33],Active
same,Activity,HEL [34],Active
same,Activity,NB-4 [35],Dose-Dependent Effect
same,IC50,MOLM-13 [36],2.9 µM
same,Activity,MV4-11 [37],Dose-Dependent Effect
same,IC50,MV4-11 [38],5.8 µM
same,inhibition,MV4-11 [39],Active
same,Activity,NB-4 [40],Active
same,IC50,NB-4 [41],4.9 µM
same,Activity,NB-4 [42],Dose-Dependent Effect
same,inhibition,MOLM-13 [43],Active
same,Activity,NB-4 [44],Active
same,Activity,[45],Active
